Counter-ions that a name gives are not always drawn. Like-named read-outs stand apart in the source and are kept apart here.
Experiments:
[1] = Humidity stressing of Form A; assay type: physicochemical; conditions: approximately 75% humidity (RH)
[2] = assay type: physicochemical; conditions: for relative humidity at which conversion to Form B occurred: slurrying Form A only
Description: Slurry experiments were performed with various water activities starting with Form A only and also by conducting interconversion slurries or pre-saturating solutions with APC and then adding equal amounts of Form A and Form B. When slurrying Form A only, conversion to Form B at room temperature occurred at 67% RH, and 40% RH at 2-8° C. With the interconversion slurries, Form B was isolated from all experiments with relative humidities ranging from 50% to 70%.

[3] = Drying studies on Form B (temperature, vacuum, milling, desiccant, low RH stressing); assay type: physicochemical
Description: Drying studies were performed on Form B. The drying experiments were performed under various temperatures with and without vacuum. Additionally, milling, storage under desiccant, and low RH stressing were conducted.

[4] = Aqueous solubility of Form B in different pH buffers; assay type: physicochemical; conditions: thermodynamic from solid
[5] = Drying of Form B in scaled-up method (low vacuum); assay type: physicochemical; conditions: oven temperature 20-25° C., low vacuum (700-750 mbar)
Description: An additional scaled-up method for producing Form B was developed that reduced reaction time and volume and increased yield. Isolation of Form B from Form A was carried out in 5 volumes of solvent (acetonitrile:water (95%:5% v:v)) at about 20° C. for about 1-2 hours. The drying process was carried out at an oven temperature of 20-25° C. and low vacuum (700-750 mbar). Under these drying conditions Form B was stable and no detectable Form A was formed. This method was used on a 4.5 kg batch of APC and produced Form B with a yield of 93.7%.

Row | SMILES | solid form after humidity stressing [1] | relative humidity at which conversion to Form B occurred ([2]; 2-8° C.) [% RH] | relative humidity at which conversion to Form B occurred ([2]; room temperature) [% RH] | stability of solid form (overall result of the drying studies) ([3]; low RH or elevated temperature) | solid form after drying/stress ([3]; vacuum drying at 50° C. 1 day, heating at 80° C. 1 day, milling) | solid form after drying/stress ([3]; vacuum drying at ambient temperature 1 day, heating at 40° C. 1 day, storage under desiccant 1 day, stressing at 33% RH 2 weeks) | solubility ([4]; aqueous buffer, Buffer solution pH 4.5, pH (buffer) measured starting conditions 4.5, pH (buffered sample) 5.7, read-out: Solubility (mg/ml mean of triplicates)) [mg/mL] | solubility ([4]; aqueous buffer, Buffer solution pH 5.5, pH (buffer) measured starting conditions 5.5, pH (buffered sample) 6.0, read-out: Solubility (mg/ml mean of triplicates)) [mg/mL] | solubility ([4]; aqueous buffer, Buffer solution pH 7.4, pH (buffer) measured starting conditions 7.4, pH (buffered sample) 6.4, read-out: Solubility (mg/ml mean of triplicates)) [mg/mL] | solubility ([4]; aqueous buffers of different pH, aqueous buffer, different pH buffers, read-out: aqueous solubility) [mg/mL] | solubility ([4]; buffer solution, aqueous buffer, pH 1-6.5, read-out: solubility in buffer solution) [mg/mL] | solubility ([4]; simulated gastric fluid, Buffer solution pH 1.2, pH (buffer) measured starting conditions 1.2, pH (buffered sample) 4.5, read-out: Solubility (mg/ml mean of triplicates)) [mg/mL] | stability of solid form on drying [5] | relative stability of solid forms ([2]; interconversion slurry of Form A and Form B, approximately 50% RH or greater at room temperature)
1 | NC(=O)OC[C@H](N)Cc1ccccc1 [Form A, (R)-2-amino-3-phenylpropyl carbamate hydrochloride] | Partial conversion to Form B | 40 | 67 |  |  |  |  |  |  |  |  |  |  | 
2 | NC(=O)OC[C@H](N)Cc1ccccc1 [Form B, (R)-2-amino-3-phenylpropyl carbamate hydrochloride] |  |  |  | not stable | Full dehydration to Form A | Partial conversion to Form A | 733 | 742 | 746 | > 700 | 700 to 750 | 732 | stable | more stable form

Source: patent US12384743B2, “Compositions comprising (R)-2-amino-3-phenylpropyl carbamate and uses thereof” (priority 2016, dated 2025)
